From patent publication US9334498B2, “Methods and compositions for modulating MIR-204 activity” (UAB Research Foundation, priority 2012, dated 2016)
Oligonucleotides are written 5' to 3', each unit as a sugar letter and its base; * is a phosphorothioate linkage, no mark a phosphodiester; rarer units and linkages stand in square brackets, end groups in braces. Plain capitals give the bases only. {Chol} = cholesterol; m = 2'-O-methyl

Key:
miR-204 = assay: Antagomir pilot studies in vivo: islet miR-204 expression; set-up: species or system mouse; conditions: after just one injection
Protocol: miR-204 knock down (in vitro and in vivo). We will utilize the miR204 inhibitor oligo (IN-320505-05; meridian Hairpin Inhibitor rno-miR-204) or scrambled control (IN-001005-01-05) (Dharmacon) to perform transfection experiments in INS-1 cells and primary human islets as mentioned above and described herein. This microRNA inhibitor oligonucleotide specifically binds to miR-204 and targets it for degradation. In fact, 72 h after transfection we saw a significant ˜5-fold reduction in miR-204 expression, but no effect on other microRNAs (data not shown) confirming the effectiveness and specificity of this approach. […] Therefore, after diabetes has been confirmed by blood glucose readings over 250 mg/dL on two consecutive days, these obese and diabetic male mice and their lean, non-diabetic littermates will again be divided into three treatment groups and will receive antagomir, mutant antagomir or saline injections as described for the wild-type mice. In all mice, blood glucose levels will be assessed daily (by glucometer) and serum will be collected before injection and prior to sacrifice for measurement of insulin levels (by ELISA)(17). […]

STAT3 = target: T1, STAT3 (Rattus norvegicus, UniProt P52631); assay: STAT3 inhibition in INS-1 cells, expression by qRT-PCR; format: cell-based
T1 construct: endogenous in cells; host or cells: INS-1 rat beta cells
Protocol: FIG. 18. Effects of TXNIP and diabetes on beta cell miR-204 expression. Expression of miR-204 was assessed by qRT-PCR in (A) INS-1 cells overexpressing TXNIP (INS-TXNIP) and control (INS-LacZ) cells, (B) primary islets of TXNIP-deficient HcB-19 and C3H control mice, and (C) primary islets of beta-cell-specific TXNIP knockout bTKO and lox/lox control mice. (D) TXNIP effects on STAT3 activation were determined by immunoblotting for phospho-STAT3 (p-STAT3) and total STAT3 in INS-TXNIP and control INS-LacZ cells. (E) To determine the role of STAT3 in miR-204 expression, INS-1 cells were incubated with the STAT3 inhibitor STATTIC (2 μM for 48 hr) or vehicle (DMSO) and the expression of miR-204 was detected by qRT-PCR. (F) To assess the effect of diabetes on miR-204 expression, primary islets of 10-week old, male, diabetic ob/ob or lean control mice were analyzed by qRT-PCR. Bars represent means±SEM; n=3-5 independent experiments.
miR-204 is encoded within intron 6 of the TRPM3 gene (transient receptor potential melastatin 3, a cation-selective channel) and is transcribed in the same direction as TRPM3^30. Since miR-204 and TRPM3 are therefore sharing the same promoter, we deduced that, if TXNIP were to regulate miR-204 expression at the transcriptional level, TRPM3 would be co-regulated in parallel. […]

T1 sequence (P52631 whole entry): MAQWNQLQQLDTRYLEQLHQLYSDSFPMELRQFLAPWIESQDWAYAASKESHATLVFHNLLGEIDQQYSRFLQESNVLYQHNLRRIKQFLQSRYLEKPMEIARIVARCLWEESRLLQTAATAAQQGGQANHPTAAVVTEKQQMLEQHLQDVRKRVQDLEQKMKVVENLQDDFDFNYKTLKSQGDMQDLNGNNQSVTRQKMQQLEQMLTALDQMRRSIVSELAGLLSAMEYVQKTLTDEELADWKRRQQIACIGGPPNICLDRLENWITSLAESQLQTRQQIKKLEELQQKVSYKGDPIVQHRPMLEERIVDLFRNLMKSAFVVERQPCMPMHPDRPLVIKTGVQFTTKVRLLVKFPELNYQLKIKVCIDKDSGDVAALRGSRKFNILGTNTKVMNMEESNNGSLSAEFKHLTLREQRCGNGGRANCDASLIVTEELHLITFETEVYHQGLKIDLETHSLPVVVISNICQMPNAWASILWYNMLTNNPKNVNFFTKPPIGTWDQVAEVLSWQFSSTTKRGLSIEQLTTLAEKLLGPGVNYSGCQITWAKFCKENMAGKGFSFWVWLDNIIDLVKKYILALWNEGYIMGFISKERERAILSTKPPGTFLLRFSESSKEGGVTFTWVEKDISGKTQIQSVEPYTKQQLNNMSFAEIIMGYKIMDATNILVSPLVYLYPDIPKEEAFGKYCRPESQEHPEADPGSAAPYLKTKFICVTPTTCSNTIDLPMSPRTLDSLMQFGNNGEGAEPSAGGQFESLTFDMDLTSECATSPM

5′-mA(*)mG(*)mGmCmAmUmAmGmGmAmUmGmAmCmAmAmAmG mG(*)mG(*)mA(*) mA(*)-3Chl (antisense mA*mG*mGmCmAmUmAmGmGmAmUmGmAmCmAmAmAmGmG*mG*mA*mA*{Chol}) [miR-204 antagomir]
reduction in islet miR-204 expression (miR-204): ~2 fold

O=[N+]([O-])c1ccc2c(c1)S(=O)(=O)C=C2 [STATTIC]
TRPM3 (host gene) expression (STAT3): significantly induced | miR-204 expression (STAT3; 2 μM for 48 hr vs DMSO): significantly induced
